The source of these data is article PMC8320107 (ACS Omega, 2021).

For the assay, the target named is AChE (Homo sapiens, UniProt P22303). Nature of the assay: In vitro AChE inhibitory activity, Ellman's colorimetric method. As to conditions: for relative potency (%): AChE inhibitory potency relative to donepezil hydrochloride (100). Format: biochemical. On the technique in general: DTNB colorimetry detects thiols as they appear.
Setting [1] is: in vitro AChE inhibition, mean ± standard error of the mean of three experiments.

Structures are written as SMILES. Like-named read-outs stand apart in the source and are kept apart here.

AChE, sequence (P22303 32-614): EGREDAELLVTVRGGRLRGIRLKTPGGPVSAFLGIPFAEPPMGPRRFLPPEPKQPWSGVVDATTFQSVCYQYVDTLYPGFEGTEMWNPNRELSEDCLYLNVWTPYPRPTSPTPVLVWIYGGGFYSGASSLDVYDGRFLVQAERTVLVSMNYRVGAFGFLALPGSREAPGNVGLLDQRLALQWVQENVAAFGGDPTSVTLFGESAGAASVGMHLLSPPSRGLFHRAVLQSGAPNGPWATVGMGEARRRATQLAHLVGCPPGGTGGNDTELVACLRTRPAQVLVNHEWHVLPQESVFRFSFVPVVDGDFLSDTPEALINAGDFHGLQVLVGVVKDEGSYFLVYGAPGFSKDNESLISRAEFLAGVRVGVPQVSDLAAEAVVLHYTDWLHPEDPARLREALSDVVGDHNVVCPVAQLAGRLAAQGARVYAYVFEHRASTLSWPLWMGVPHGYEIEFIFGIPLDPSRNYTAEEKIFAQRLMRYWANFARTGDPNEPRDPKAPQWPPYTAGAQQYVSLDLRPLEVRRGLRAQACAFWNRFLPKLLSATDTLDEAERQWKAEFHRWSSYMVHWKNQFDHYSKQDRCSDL

As a reminder, the IC50 is the concentration that inhibits the measured activity by half. Under setting [1], `Cc1ccc(C=C2SC(Nc3nc(-c4ccc(C)cc4)cs3)=NC2=O)cc1` [Compound 8, 2-[4-(p-Tolylthiazol-2-yl)amino]-5-(4-methylbenzylidene)-4,5-dihydrothiazole-4-one] returned an IC50 of 501 ± 14 nM.
`Cc1ccc(-c2csc(NC3=NC(=O)C(=Cc4ccc(Cl)cc4Cl)S3)n2)cc1` [Compound 12, 2-[4-(p-Tolylthiazol-2-yl)amino]-5-(2,4-dichlorobenzylidene)-4,5-dihydrothiazole-4-one]: the midpoint of inhibition under setting [1], the IC50, lay at 336 ± 9.1 nM.
The compound `Cc1ccc(-c2csc(NC3=NC(=O)C(=Cc4ccc(Br)s4)S3)n2)cc1` [Compound 14, 2-[4-(p-Tolylthiazol-2-yl)amino]-5-[(5-bromothiophen-2-yl)methylene]-4,5-dihydrothiazole-4-one] gave an IC50 under setting [1] of 380 ± 10 nM.
Turning to `COc1ccc(-c2csc(NC3=NC(=O)C(=Cc4ccc(C)cc4)S3)n2)cc1` [Compound 15, 2-[4-(4-Methoxyphenylthiazol-2-yl)amino]-5-(4-methylbenzylidene)-4,5-dihydrothiazole-4-one], it took 375 ± 10 nM to reach half-maximal inhibition under setting [1] (IC50).
Turning to `COc1ccc(-c2csc(NC3=NC(=O)C(=Cc4ccc(OC)c(OC)c4)S3)n2)cc1` [Compound 17, 2-[4-(4-Methoxyphenylthiazol-2-yl)amino]-5-(3,4-dimethoxybenzylidene)-4,5-dihydrothiazole-4-one], the “relative potency (%)” value is given as 31.26%. Moreover, under setting [1], the half-maximal inhibitory concentration (IC50) was found to be 176 ± 4.8 nM.
In the case of `COc1ccc(-c2csc(NC3=NC(=O)C(=Cc4ccc(Cl)cc4)S3)n2)cc1` [Compound 18, 2-[4-(4-Methoxyphenylthiazol-2-yl)amino]-5-(4-chlorobenzylidene)-4,5-dihydrothiazole-4-one], the “relative potency (%)” value is listed as 28.43%. Further, the IC50 under setting [1] turned out to be 193 ± 5.3 nM.
`COc1ccc(-c2csc(NC3=NC(=O)C(=Cc4ccc(Cl)cc4Cl)S3)n2)cc1` [Compound 19, 2-[4-(4-Methoxyphenylthiazol-2-yl)amino]-5-(2,4-dichlorobenzylidene)-4,5-dihydrothiazole-4-one]: the IC50 under setting [1] was 731 ± 20 nM.
As to `COc1ccc(-c2csc(NC3=NC(=O)C(=Cc4cccs4)S3)n2)cc1` [Compound 20, 2-[4-(4-Methoxyphenylthiazol-2-yl)amino]-5-[(thiophen-2-yl)methylene]-4,5-dihydrothiazole-4-one], the half-inhibitory concentration (IC50) under setting [1] was found to be 260 ± 7.1 nM.
In the case of `COc1ccc(-c2csc(NC3=NC(=O)C(=Cc4ccc(Br)s4)S3)n2)cc1` [Compound 21, 2-[4-(4-Methoxyphenylthiazol-2-yl)amino]-5-[(5-bromothiophen-2-yl)methylene]-4,5-dihydrothiazole-4-one], the “relative potency (%)” value is 29.28%. This compound came in with an IC50 under setting [1] of 188 ± 5.1 nM.
For the compound `CCN=C1SCC(=O)N1c1nc(-c2ccc(C)cc2)cs1` [Compound 28, 2-Ethylimino-3-[4-(p-tolyl)thiazol-2-yl]thiazolidin-4-one], the concentration for half-maximal inhibition (IC50) was 478 ± 13 nM.
Same read-out and setting: then `Cc1ccc(-c2csc(N3C(=O)CSC3=NCc3ccccc3)n2)cc1` [Compound 29, 2-Benzylimino-3-[4-(p-tolyl)thiazol-2-yl]thiazolidin-4-one], with 188 ± 5.1 nM.
For `CCN=C1SCC(=O)N1c1nc(-c2ccc(OC)cc2)cs1` [Compound 30, 2-Ethylimino-3-[4-(4-methoxyphenyl)thiazol-2-yl]thiazolidin-4-one], 346 ± 9.4 nM corresponded to half-maximal inhibition (IC50).
For the compound `COc1ccc(-c2csc(N3C(=O)CSC3=NCc3ccccc3)n2)cc1` [Compound 31, 2-Benzylimino-3-[4-(4-methoxyphenyl)thiazol-2-yl]thiazolidin-4-one], inhibition was half-maximal at 152 ± 4.1 nM (IC50) and the “relative potency (%)” value is recorded as 36.08%.
In turn, `COc1ccc(-c2csc(N3C(=O)C(=Cc4ccc(OC)c(OC)c4)SC3=NCc3ccccc3)n2)cc1` [Compound 32, 2-(Benzylimino)-5-(3,4-dimethoxybenzylidene)-3-[4-(4-methoxyphenyl)thiazol-2-yl]thiazolidin-4-one] gave a half-inhibitory concentration (IC50) of 450 ± 12 nM.
Take `COc1ccc(-c2csc(N3C(=O)C(=Cc4ccc(Cl)cc4Cl)SC3=NCc3ccccc3)n2)cc1` [Compound 33, 2-(Benzylimino)-5-(2,4-dichlorobenzylidene)-3-[4-(4-methoxyphenyl)thiazol-2-yl]thiazolidin-4-one]: the IC50 was 188 ± 5.1 nM and the “relative potency (%)” value worked out at 29.27%.
